pIC50: −log10 of the molar value. Read-outs that look alike come from different tables or passages of the source.
Tests used:
human AR = molecular target: T1, human AR (Homo sapiens, UniProt P10275); assay: AR-mediated induction of PSA-luciferase reporter by R1881 in HeLa13 cells; type: cell-based; settings: for inhibition at 1 µM / inhibition at 4 µM: read-out: % Inhibition of AR-Mediated Gene Induction
T1 construct: expressed in transfected cells; host or cells: HeLa13 (HeLa 13)
T1 sequence (P10275 1-920): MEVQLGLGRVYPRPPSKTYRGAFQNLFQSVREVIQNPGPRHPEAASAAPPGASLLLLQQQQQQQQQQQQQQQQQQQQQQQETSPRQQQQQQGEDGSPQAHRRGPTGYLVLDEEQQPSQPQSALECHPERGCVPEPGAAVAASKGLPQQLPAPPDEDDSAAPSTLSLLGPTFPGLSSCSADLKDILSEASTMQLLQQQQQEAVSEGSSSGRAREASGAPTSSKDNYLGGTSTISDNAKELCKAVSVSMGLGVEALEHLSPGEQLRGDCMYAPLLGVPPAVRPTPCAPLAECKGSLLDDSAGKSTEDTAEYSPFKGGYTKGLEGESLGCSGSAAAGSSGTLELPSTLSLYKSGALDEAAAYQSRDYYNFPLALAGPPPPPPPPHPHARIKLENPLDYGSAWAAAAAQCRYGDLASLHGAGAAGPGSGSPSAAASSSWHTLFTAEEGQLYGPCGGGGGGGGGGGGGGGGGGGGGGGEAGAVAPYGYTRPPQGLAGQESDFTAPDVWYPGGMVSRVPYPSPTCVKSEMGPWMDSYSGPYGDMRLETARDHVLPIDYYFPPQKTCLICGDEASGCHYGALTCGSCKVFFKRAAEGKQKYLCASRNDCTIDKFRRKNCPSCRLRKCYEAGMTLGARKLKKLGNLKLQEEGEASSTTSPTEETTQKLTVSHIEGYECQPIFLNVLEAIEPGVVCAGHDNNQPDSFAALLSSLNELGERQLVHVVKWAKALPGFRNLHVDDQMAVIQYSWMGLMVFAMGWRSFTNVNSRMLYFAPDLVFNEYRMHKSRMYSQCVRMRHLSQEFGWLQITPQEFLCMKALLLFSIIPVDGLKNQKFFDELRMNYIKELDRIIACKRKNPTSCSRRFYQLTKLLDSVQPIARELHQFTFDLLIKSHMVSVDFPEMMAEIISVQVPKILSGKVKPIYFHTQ
Excerpt: (§1) The engineered T47D breast cancer cell lines employed for the assessment of flavonoid activity on glucocorticoid receptor (GR) and progesterone receptor (PR) signaling permitted the facile quantitation transcription of both an endogenous gene and a stably integrated reporter gene. […] The T47D K5pLuc cell line responds to progestins via induction of a stably integrated cytokeratin 5-luciferase reporter gene. […] For assessment of the effect of the test compounds on androgen receptor (AR) signaling, we used the HeLa13 cell line engineered to stably express human AR and a PSA-luciferase reporter gene containing a 4× multimerized PSA upstream enhancer ARE1 linked to the E4 TATA box and luciferase gene.
Experiments testing the effect of flavonoid on androgen receptor-mediated transcription employed HeLa 13 cells maintained in MEM medium supplemented with 10% FBS, 0.5 mg/mL G418, 0.05 mg/mL Hygromycin B, […], and streptomycin (100 μg/mL). For reporter gene experiments, cells were replated at a 1:5 dilution in MEM medium with 5% charcoal-stripped FBS and the antibiotics mentioned above. The medium was changed the next day. After 48 h, the cells were washed with PBSE, detached with phenol red-free trypsin, pelleted, resuspended and plated in 96 well plates as above. Hormone and flavonoid treatments were performed as described above with the HeLa 13 medium and charcoal-stripped FBS. When treated with hormone, the synthetic androgen, R1881, was used at 1.0 nM. Hormone treatment was for 20 h at which time cells were harvested for assay of luciferase.
(§2) For all cell lines, cell harvesting and the luminescence assay for alkaline phosphatase and/or luciferase were performed as previously described in detail. Each condition was performed in quadruplicate. […] Percent inhibition is 100 minus the percent induction.

[1] = molecular target: T2, glucocorticoid receptor (GR) (Rattus norvegicus, UniProt P06536); assay: GR-mediated induction of transcription by dexamethasone in T47D (A1-2) cells (luciferase reporter and endogenous alkaline phosphatase); type: cell-based, human; settings: dexamethasone 1.0 nM; for inhibition at 4 µM / inhibition at 8 µM: T47D
T2 construct: host or cells: T47D (A1-2)
T2 sequence (P06536 1-795): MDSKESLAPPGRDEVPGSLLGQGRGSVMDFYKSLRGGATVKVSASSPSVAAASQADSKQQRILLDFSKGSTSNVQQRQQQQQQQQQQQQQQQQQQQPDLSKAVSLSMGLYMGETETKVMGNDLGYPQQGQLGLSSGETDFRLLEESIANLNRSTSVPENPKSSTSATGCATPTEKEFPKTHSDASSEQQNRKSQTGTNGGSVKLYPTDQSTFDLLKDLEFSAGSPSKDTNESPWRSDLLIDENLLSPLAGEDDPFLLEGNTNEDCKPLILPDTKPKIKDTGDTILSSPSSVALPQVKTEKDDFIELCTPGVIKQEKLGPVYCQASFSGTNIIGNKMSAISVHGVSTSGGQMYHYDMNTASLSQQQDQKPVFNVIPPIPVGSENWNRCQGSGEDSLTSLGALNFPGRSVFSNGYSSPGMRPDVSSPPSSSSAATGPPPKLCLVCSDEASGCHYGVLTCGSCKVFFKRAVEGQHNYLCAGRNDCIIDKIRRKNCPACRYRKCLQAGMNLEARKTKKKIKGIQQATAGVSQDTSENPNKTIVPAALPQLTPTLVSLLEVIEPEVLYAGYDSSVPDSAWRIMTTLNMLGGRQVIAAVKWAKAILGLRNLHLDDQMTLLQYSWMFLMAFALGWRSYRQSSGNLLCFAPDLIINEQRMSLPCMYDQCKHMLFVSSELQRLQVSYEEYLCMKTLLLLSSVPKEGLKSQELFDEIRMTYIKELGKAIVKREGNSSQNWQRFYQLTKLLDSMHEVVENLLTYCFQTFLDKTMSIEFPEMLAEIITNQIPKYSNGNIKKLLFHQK
Excerpt: as §1
For assessment of the effect of flavones on glucocorticoid receptors, T47D (A1-2) cells were maintained in Minimal Essential Medium, 10% Fetal Bovine Serum (FBS), 0.2 mg/mL G418, penicillin (100 U/mL), and streptomycin (100 μg/mL). For experiments, medium was removed, and cultures rinsed with Phosphate-Buffered Saline (PBS) + 1.0 mM EDTA (PBSE), detached with trypsin, pelleted, and resuspended in medium to a concentration of 500,000 cells/mL. Aliquots of cell suspension, 100 microliters/well, were transferred into a 96-well, white, flat-bottomed plate and allowed to attach for 24 h. The following day, each well was treated with a 50 microliter aliquot of a test compound diluted in medium. Controls received medium containing DMSO diluted in the same way. For hormone treatment, dexamethasone was diluted in medium and added as 50 microliter aliquots so that the final volume in each well was 200 microliters. The final concentration of dexamethasone was 1.0 nM. Controls received medium without hormone. Hormone treatment was for 20 h at which time cells were harvested for assay of alkaline phosphatase and luciferase.
as §2

[2] = 4 µM, AP (alkaline phosphatase), read-out: % Inhibition of GR Induction
[3] = 4 µM, LUC (luciferase), read-out: % Inhibition of GR Induction
[4] = 8 µM, AP (alkaline phosphatase), read-out: % Inhibition of GR Induction
[5] = 8 µM, LUC (luciferase), read-out: % Inhibition of GR Induction
[6] = read-out: % Inhibition of GR Induction, 4 µM, AP (alkaline phosphatase)
[7] = read-out: % Inhibition of GR Induction, 4 µM, LUC (luciferase)
[8] = read-out: % Inhibition of GR Induction, 8 µM, AP (alkaline phosphatase)
[9] = read-out: % Inhibition of GR Induction, 8 µM, LUC (luciferase)

SMILES | inhibition at 1 µM (human AR; 1 µM, R1881 1.0 nM) [%] | inhibition at 4 µM (human AR; 4 µM, R1881 1.0 nM) [%] | inhibition at 4 µM [1, 2] [%] | inhibition at 4 µM [1, 3] [%] | inhibition at 8 µM [1, 4] [%] | inhibition at 8 µM [1, 5] [%] | also measured
O=c1cc(-c2ccc(O)c(O)c2)oc2ccccc12 [3′,4′-dihydroxyflavone] | 40 | 75 | -15 | -2 | 38 | -6 | 
O=c1cc(-c2ccc(O)cc2)oc2ccccc12 [4′-hydroxyflavone] | 29 | 65 | 49 | -43 | 49 | -49 | 
O=c1cc(-c2ccc(O)c(O)c2)oc2cccc(O)c12 [5,3′,4′-trihydroxyflavone] |  |  |  |  |  |  | inhibition at 1 µM (human AR): 29%; inhibition at 4 µM (human AR): 91%; inhibition at 4 µM [1, 6]: 27%; inhibition at 4 µM [1, 7]: -16%; inhibition at 8 µM [1, 8]: 40%; inhibition at 8 µM [1, 9]: -24%
O=c1cc(-c2ccc(O)cc2)oc2cccc(O)c12 [5,4′-dihydroxyflavone] | 77 | 97 | 34 | 13 | 33 | 13 | pIC50 (human AR; R1881, read-out: IC50, AR antagonism): ~6.30
O=c1cc(-c2cc(O)c(O)c(O)c2)oc2cc(O)cc(O)c12 [5,7,3′4′,5′-pentahydroxyflavone] |  |  |  |  |  |  | % Inhibition of AR-Mediated Gene Induction (human AR; 1 µM, R1881 1.0 nM): −8%; % Inhibition of AR-Mediated Gene Induction (human AR; 4 µM, R1881 1.0 nM): 24%; % Inhibition of GR Induction ([1]; 4 µM, AP (alkaline phosphatase)): −19%; % Inhibition of GR Induction ([1]; 4 µM, LUC (luciferase)): 5%; % Inhibition of GR Induction ([1]; 8 µM, AP (alkaline phosphatase)): 46%; % Inhibition of GR Induction ([1]; 8 µM, LUC (luciferase)): −25%
O=C1CC(c2ccc(O)c(O)c2)Oc2cc(O)cc(O)c21 (stereo not shown) [5,7,3′,4′-tetrahydroxyflavanone] |  |  |  |  |  |  | inhibition at 1 µM (human AR): 13%; inhibition at 4 µM (human AR): 24%; inhibition at 4 µM [1, 6]: 4%; inhibition at 4 µM [1, 7]: 5%; inhibition at 8 µM [1, 8]: -4%; inhibition at 8 µM [1, 9]: 18%
COc1ccc([C@@H]2CC(=O)c3c(O)cc(O)cc3O2)cc1O [5,7,3′-triOH, 4′methoxyflavanone] |  |  | 1 |  | 51 | 15 | inhibition at 1 µM (human AR): -28%; inhibition at 4 µM (human AR): -30%
O=c1cc(-c2ccc(O)cc2)oc2cc(O)ccc12 [7,4′-dihydroxyflavone] |  |  |  |  |  |  | inhibition at 1 µM (human AR): -18%; inhibition at 4 µM (human AR): -20%; inhibition at 4 µM [1, 6]: 47%; inhibition at 4 µM [1, 7]: -92%; inhibition at 8 µM [1, 8]: 64%; inhibition at 8 µM [1, 9]: -38%

Continued, in another order:

inhibition at 1 µM (human AR; 1 µM, R1881 1.0 nM) [%] | inhibition at 4 µM (human AR; 4 µM, R1881 1.0 nM) [%] | inhibition at 4 µM [1, 2] [%] | inhibition at 4 µM [1, 3] [%] | inhibition at 8 µM [1, 4] [%] | inhibition at 8 µM [1, 5] [%] | SMILES | also measured
-20 | 67 | 33 | -8 | 55 | -3 | O=c1cc(-c2ccc(O)c(O)c2)oc2cc(O)cc(O)c12 [5,7,3′,4′-tetrahydroxyflavone] | 
-17 | 9 | 8 | 15 | 7 | 19 | O=C1CC(c2ccc(O)cc2)Oc2cc(O)cc(O)c21 (stereo not shown) [5,7,4′-trihydroxyflavanone] | 
55 | 22 | 22 | -7 |  |  | O=c1c(-c2ccc(O)cc2)coc2cc(O)cc(O)c12 [5,7,4′-trihydroxyisoflavone] | 
-13 | 46 | 22 | 0 | 38 | -6 | O=c1cc(-c2ccccc2)oc2cc(O)cc(O)c12 [5,7-dihydroxyflavone] | 
43 | 54 | 26 | -44 | 39 | -82 | O=c1cc(-c2ccc(O)cc2)oc2ccc(O)cc12 [6,4′-dihydroxyflavone] | 
-6 | 11 | 21 | -117 | 36 | -87 | O=c1cc(-c2ccc(O)c(O)c2)oc2cc(O)ccc12 [7,3′,4′-trihydroxyflavone] | 
 | 24 |  |  | 5 | -52 | O=c1c(-c2ccc(O)cc2)coc2cc(O)ccc12 [7,4′-dihydroxyisoflavone] | 
-12 | 55 | 13 | 4 | 34 | -24 | O=c1cc(-c2ccccc2)oc2ccccc12 [flavone] | 

Source: article PMC11940309, “Endocrine-Disrupting Activities of Flavones on Steroid Receptors: Structural Requirements and Synthesis of Novel Flavone with Improved Estrogenic Activity” (Biomedicines, 2025)
